Reference: PubChem BioAssay (NCI)
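Cultured in 96-well plates, cells were exposed to test compound for 48 hours across five concentrations. TGI: total growth inhibition.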

How the values were obtained:
Experiment in all cases: DTP human tumour cell line panel, 48 h
[1] = tested on: NCI/ADR-RES ovarian
[2] = tested on: UACC-62 melanoma
[3] = tested on: HOP-92 NSCLC
[4] = tested on: A549 NSCLC
[5] = tested on: HCT-116 colon
[6] = tested on: TK-10 renal
[7] = tested on: NCI-H522 lung
[8] = tested on: IGROV1 ovarian
[9] = tested on: HL-60(TB) leukemia
[10] = tested on: DU-145 prostate
[11] = tested on: LOX IMVI melanoma
[12] = tested on: HOP-62 NSCLC
[13] = tested on: SF-539 CNS
[14] = tested on: UO-31 renal
[15] = tested on: SN12C renal
[16] = tested on: HS 578T breast
[17] = tested on: MDA-MB-435
[18] = tested on: UACC-257 melanoma
[19] = tested on: HCC-2998 colon
[20] = tested on: SNB-19 CNS
[21] = tested on: SK-MEL-5 melanoma
[22] = tested on: SF-268 CNS
[23] = tested on: HCT-15 colon
[24] = tested on: SW-620 colon
[25] = tested on: SK-MEL-28 melanoma
[26] = tested on: OVCAR-8 ovarian
[27] = tested on: MALME-3M melanoma
[28] = tested on: OVCAR-4 ovarian
[29] = tested on: NCI-H460 lung
[30] = tested on: CCRF-CEM leukemia
[31] = tested on: SR leukemia
[32] = tested on: RPMI-8226 leukemia
[33] = tested on: T-47D breast
[34] = tested on: U251 CNS
[35] = tested on: EKVX NSCLC
[36] = tested on: BT-549 breast
[37] = tested on: CAKI-1 renal
[38] = tested on: MCF7 breast
[39] = tested on: SK-MEL-2 melanoma
[40] = tested on: MDA-MB-231 breast
[41] = tested on: K-562 leukemia
[42] = tested on: ACHN renal
[43] = tested on: NCI-H226 lung
[44] = tested on: SK-OV-3 ovarian
[45] = tested on: COLO 205 colon
[46] = tested on: PC-3 prostate
[47] = tested on: KM12 colon
[48] = tested on: RXF 393 renal
[49] = tested on: OVCAR-5 ovarian
[50] = tested on: M14 melanoma
[51] = tested on: SNB-75 CNS
[52] = tested on: SF-295 CNS
[53] = tested on: HT29 colon
[54] = tested on: MOLT-4 leukemia
[55] = tested on: 786-0 renal

SMILES: N=c1oc2ccc([N+](=O)[O-])cc2cc1C(=O)NCc1ccccc1
- TGI [1]: 33.6 µM
- TGI [2]: 42.9 µM
- TGI [3]: 36.7 µM
- TGI [4]: > 100 µM
- TGI [5]: 32 µM
- TGI [6]: 99.4 µM
- TGI [7]: 25.8 µM
- TGI [8]: 30.9 µM
- TGI [9]: > 100 µM
- TGI [10]: > 100 µM
- TGI [11]: 32.2 µM
- TGI [12]: > 100 µM
- TGI [13]: 33.3 µM
- TGI [14]: 35.8 µM
- TGI [15]: 36.9 µM
- TGI [16]: 42.9 µM
- TGI [17]: 49.3 µM
- TGI [18]: 38.2 µM
- TGI [19]: > 100 µM
- TGI [20]: > 100 µM
- TGI [21]: 41.6 µM
- TGI [22]: 40.6 µM
- TGI [23]: 33.5 µM
- TGI [24]: 39.5 µM
- TGI [25]: 35.8 µM
- TGI [26]: 33.2 µM
- TGI [27]: 26.7 µM
- TGI [28]: 63.5 µM
- TGI [29]: > 100 µM
- TGI [30]: > 100 µM
- TGI [31]: > 100 µM
- TGI [32]: > 100 µM
- TGI [33]: 67.3 µM
- TGI [34]: 83 µM
- TGI [35]: > 100 µM
- TGI [36]: 30 µM
- TGI [37]: 36.2 µM
- TGI [38]: > 100 µM
- TGI [39]: 39.1 µM
- TGI [40]: 60.9 µM
- TGI [41]: > 100 µM
- TGI [42]: 31.1 µM
- TGI [43]: 26.9 µM
- TGI [44]: > 100 µM
- TGI [45]: 40.5 µM
- TGI [46]: 40.3 µM
- TGI [47]: 36.7 µM
- TGI [48]: 28 µM
- TGI [49]: 96 µM
- TGI [50]: 61.3 µM
- TGI [51]: 29.5 µM
- TGI [52]: > 100 µM
- TGI [53]: 40.7 µM
- TGI [54]: > 100 µM
- TGI [55]: 40 µM
